In patent publication US11203610B2, “2′3′ cyclic dinucleotides with phosphonate bond activating the sting adaptor protein” (INSTITUTE OF ORGANIC CHEMISTRY AND BIOCHEMISTRY ASCR, V.V.I., priority 2017, dated 2021):

Tests used:
WT STING [1] = biological target: T1, WT STING (Homo sapiens, UniProt Q86WV6, H232R); assay: Digitonin assay using 293T wtSTING-FL reporter cells; format: cell-based; settings: 293T wtSTING-FL cells; 30 minutes in Digitonin buffer, then 5 hours; ISRE firefly luciferase reporter; 8-point dose-response curve; read-out: Digitonin assay EC50 (μmol · l^−1) WT STING
Text: ISRE Reporter Plasmid (pGL64.27-4xISRE)
Two complementary oligonucleotides of the sequence […] […] […] […] […] The oligonucleotides were mixed in equal molar amounts, hybridized, and cleaved by restriction endonucleases HindIII (cat. #. R0104S, NEB, Ipswich, USA) and BglII (cat. #R0144S, NEB, Ipswich, USA). Ultimately, they were ligated into plasmid pGL4.27 (cat. #E6651, Promega, Madison, USA) linearized with the same enzymes. As result the sequence with four ISRE sites was placed upstream of the minimum promoter of firefly luciferase reporter gene.
After 5 minutes incubation at room temperature (RT), 250 μL of the mixture was added dropwise to the cells in one well. Cells were incubated 36 hours at 37° C. with 5% CO2, and then detached with 0.05% Trypsin and 0.22 g/L EDTA (both cat. #L0941, Biowest, Riverside, USA).
Transfected cells were seeded onto poly-D-lysine coated six well plates at density 50,000 cells per 1 cm^2 in DMEM medium with high glucose containing 10% heat inactivated FBS, 30 g/mL blasticidin (cat. #ant-bl-05, InvivoGen, San Diego, USA), 0.06 mg/ml Penicillin G and 0.1 mg/ml Streptomycin Sulfate (both cat. #. L0018, Biowest, Riverside, USA). The medium was replenished every 3-4 days until visible colonies of cells resistant to blasticidin were formed.
Blasticidin resistant cells stably expressing WT STING were further transfected with […] plasmid following the same procedure as described above. […] Homogeneous culture of stably double transfected cells was prepared by limiting dilution of cells in 96 well plates and wells with cells were selected that originated from a single cell.
The medium was removed next day and three fold serial dilutions of compounds in Digitonin buffer containing 50 mmol·l^−1 HEPES (cat. #H3375, Sigma Aldrich, Czech Republic) pH 7.0, 100 mmol·l^−1 KCl, 3 mmol·l^−1 MgCl2, 0.1 mmol·l^−1 DTT (cat. #D0632, Sigma Aldrich, Czech Republic), 85 mmol·l^−1 Sucrose (cat. #S7903, Sigma Aldrich, Czech Republic), 0.2% BSA (cat. #A2153, Sigma Aldrich, Czech Republic), 1 mmol·l^−1 ATP (cat. #A1852, Sigma Aldrich, Czech Republic), 0.1 mmol·l^−1 GTP (cat. #G8877, Sigma Aldrich, Czech Republic), and 10 μg/mL Digitonin A (cat. #D141, Sigma Aldrich, Czech Republic) were added to the cells. The buffer was removed after 30 minutes incubation at 37° C. with 5% CO2, the cells were washed once with 100 μl of cultivation medium, and 100 μl of medium was added to each well. The plates with cells were incubated for 5 hours at 37° C. with 5% CO2, 50 μl of the medium was removed and 30 μl of ONE-Glo™ Luciferase Assay System reagent (cat. #E6120, Promega, Madison, USA) was added to each well. Luminescence was read on Synergy H1 (Biotek, Winooski, USA).
Target sequence in this assay (Q86WV6 whole entry H232R): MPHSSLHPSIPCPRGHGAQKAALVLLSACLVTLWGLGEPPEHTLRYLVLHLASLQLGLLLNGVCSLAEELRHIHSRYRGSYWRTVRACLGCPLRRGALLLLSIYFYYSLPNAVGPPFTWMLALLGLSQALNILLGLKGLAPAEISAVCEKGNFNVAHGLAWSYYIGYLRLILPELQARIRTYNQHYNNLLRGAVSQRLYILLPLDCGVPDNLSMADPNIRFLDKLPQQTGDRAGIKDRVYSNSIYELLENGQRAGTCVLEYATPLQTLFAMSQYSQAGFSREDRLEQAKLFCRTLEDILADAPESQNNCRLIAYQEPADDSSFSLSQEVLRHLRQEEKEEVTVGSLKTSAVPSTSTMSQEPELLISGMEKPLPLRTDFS

AQ STING (G230A-R293Q) = biological target: T2, AQ STING (G230A-R293Q) (Homo sapiens, UniProt Q86WV6, G230A/H232R/R293Q); assay: Differential Scanning Fluorimetry with AQ STING; format: binding; settings: thermal shift vs STING apoprotein; 150 μM CDN; 0.1 mg/ml truncated human AQ STING; SYPRO Orange; read-out: DSF ΔTm (° C.) AQ STING
T2 construct: truncated human WT STING or AQ STING (amino acid residues 140-343); 8xHis (N, cleaved yes); SUMO (N, cleaved yes); made in house; host or cells: E. coli Rosetta-gami B (DE3)
T2 sequence (Q86WV6 140-343 G230A/H232R/R293Q): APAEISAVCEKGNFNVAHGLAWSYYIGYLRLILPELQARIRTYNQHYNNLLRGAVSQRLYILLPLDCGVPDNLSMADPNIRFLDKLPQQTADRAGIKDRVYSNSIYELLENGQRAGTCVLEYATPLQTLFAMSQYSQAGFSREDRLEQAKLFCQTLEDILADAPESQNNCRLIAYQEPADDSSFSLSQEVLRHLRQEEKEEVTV
Method: (§1) WT STING and AQ STING Proteins
(§2) Purified PCR products were cleaved with restriction enzymes BamHI (cat. #R0136S, NEB, Ipswich, USA) and NotI (cat. #R0189S, NEB, Ipswich, USA) and cloned into the pSUMO vector linearized with the identical enzymes.
(§3) The resin was poured into a chromatography column, washed with 50 ml buffer A (50 mmol·l^−1 TrisCl (pH 8.0), 800 mmol·l^−1 NaCl, 3 mmol·l^−1 β-mercaptol; 10% glycerol; 20 mmol·l^−1 imidazole) and 8-His-SUMO tagged STING proteins were eluted with 15 ml buffer A containing 300 mmol·l^−1 imidazole. […] Proteins were concentrated with Amicon® Ultra-15 10 K device (cat. #UFC901008, Merck Millipore, Billerica, USA) and flash frozen in liquid N2.
(§4) Differential Scanning Fluorimetry with WT STING and AQ STING
(§5) 20 μL solutions of the reaction mixtures were pipetted in triplicates into 96 well optical reaction plates and thermal denaturation of samples were performed on real time PCR cycler (LightCycler® 480 Instrument II—Roche, Basel, Switzerland). The first derivative of the thermal denaturation curves was performed to calculate denaturing temperatures of STING—CDN complexes and STING apoproteins. The thermal shift for each CDN was calculated by subtracting the average denaturing temperature of STING apoprotein from the average denaturing temperature of STING CDN complex.

WT STING [2] = biological target: T1, WT STING; assay: Differential Scanning Fluorimetry with WT STING; format: binding; design: truncated human WT STING or AQ STING (amino acid residues 140-343); 8xHis (N, cleaved yes); SUMO (N, cleaved yes); made in house; host or cells: E. coli Rosetta-gami B (DE3); settings: thermal shift vs STING apoprotein; 150 μM CDN; 0.1 mg/ml truncated human WT STING; SYPRO Orange; read-out: DSF ΔTm (° C.) WT STING
Method: as §1, §2, §3, §4, §5
Target sequence in this assay (Q86WV6 140-343 H232R): as the sequence (Q86WV6 140-343 G230A/H232R/R293Q) above, with A91G, Q154R counted along it

Structure (SMILES)	EC50 (WT STING [1]) [nM]	ΔTm at 150 µM (AQ STING (G230A-R293Q)) [°C]	ΔTm at 150 µM (WT STING [2]) [°C]
Nc1nc2c(ncn2[C@@H]2O[C@@H]3OCP(=O)(O)O[C@H]4[C@@H](O)[C@H](n5ccc6c(N)ncnc65)O[C@@H]4COP(=O)(O)O[C@@H]2[C@@H]3O)c(=O)[nH]1 [Compound 47, (1R,6R,8R,9R,10S,15R,17R,18S)-17-(2-amino-6-oxo-6,9-dihydro-1H-purin-9-yl)-8-{4-amino-7H-pyrrolo[2,3-d]pyrimidin-7-yl}-3,9,12,18-tetrahydroxy-2,4,7,11,14,16-hexaoxa-3λ^5,12λ^5-diphosphatricyclo[13.2.1.0^6,10]octadecane-3,12-dione]	100	10.8	3.4
Nc1ncc2ncn([C@@H]3O[C@@H]4COP(=O)(O)O[C@@H]5[C@H](O)[C@@H](OCP(=O)(O)O[C@H]4[C@H]3O)O[C@H]5n3cnc4c(=O)[nH]c(N)nc43)c2n1 [Compound 48, (1R,6R,8R,9R,10S,15R,17R,18S)-17-(2-amino-6-oxo-6,9-dihydro-1H-purin-9-yl)-8-(2-amino-9H-purin-9-yl)-3,9,12,18-tetrahydroxy-2,4,7,11,14,16-hexaoxa-3λ^5,12λ^5-diphosphatricyclo[13.2.1.0^6,10]octadecane-3,12-dione]	170	11.6	3.9
CNc1ncnc2c1ncn2[C@@H]1O[C@@H]2COP(=O)(O)O[C@@H]3[C@H](O)[C@@H](OCP(=O)(O)O[C@H]2[C@H]1O)O[C@H]3n1cnc2c(=O)[nH]c(N)nc21 [Compound 49, (1R,6R,8R,9R,10S,15R,17R,18S)-17-(2-amino-6-oxo-6,9-dihydro-1H-purin-9-yl)-3,9,12,18-tetrahydroxy-8-[6-(methylamino)-9H-purin-9-yl]-2,4,7,11,14,16-hexaoxa-3λ^5,12λ^5-diphosphatricyclo[13.2.1.0^6,10]octadecane-3,12-dione]	150	9.3	3.8
Nc1nc(N)c2ncn([C@@H]3O[C@@H]4COP(=O)(O)O[C@@H]5[C@H](O)[C@@H](OCP(=O)(O)O[C@H]4[C@H]3O)O[C@H]5n3cnc4c(=O)[nH]c(N)nc43)c2n1 [Compound 50, (1R,6R,8R,9R,10S,15R,17R,18S)-17-(2-amino-6-oxo-6,9-dihydro-1H-purin-9-yl)-8-(2,6-diamino-9H-purin-9-yl)-3,9,12,18-tetrahydroxy-2,4,7,11,14,16-hexaoxa-3λ^5,12λ^5-diphosphatricyclo[13.2.1.0^6,10]octadecane-3,12-dione]	20	17.5	11.9
CSc1ncnc2c1ncn2[C@@H]1O[C@@H]2COP(=O)(O)O[C@@H]3[C@H](O)[C@@H](OCP(=O)(O)O[C@H]2[C@H]1O)O[C@H]3n1cnc2c(=O)[nH]c(N)nc21 [Compound 51, (1R,6R,8R,9R,10S,15R,17R,18S)-17-(2-amino-6-oxo-6,9-dihydro-1H-purin-9-yl)-3,9,12,18-tetrahydroxy-8-[6-(methylsulfanyl)-9H-purin-9-yl]-2,4,7,11,14,16-hexaoxa-3λ^5,12λ^5-diphosphatricyclo[13.2.1.0^6,10]octadecane-3,12-dione]	10	15.9	8.6
Nc1nc2c(ncn2[C@@H]2O[C@@H]3OCP(=O)(O)O[C@H]4[C@H](O)[C@H](n5cnc6c(N)nc(F)nc65)O[C@@H]4COP(=O)(O)O[C@@H]2[C@@H]3O)c(=O)[nH]1 [Compound 52, (1R,6R,8R,9S,10S,15R,17R,18S)-8-(6-amino-2-fluoro-9H-purin-9-yl)-17-(2-amino-6-oxo-6,9-dihydro-1H-purin-9-yl)-3,9,12,18-tetrahydroxy-2,4,7,11,14,16-hexaoxa-3λ^5,12λ^5-diphosphatricyclo[13.2.1.0^6,10]octadecane-3,12-dione]	30	20.1	13.9
C#Cc1cn([C@@H]2O[C@@H]3COP(=O)(O)O[C@@H]4[C@H](O)[C@@H](OCP(=O)(O)O[C@H]3[C@H]2O)O[C@H]4n2cnc3c(=O)[nH]c(N)nc32)c2ncnc(N)c12 [Compound 53, (1R,6R,8R,9R,10S,15R,17R,18S)-8-{4-amino-5-ethynyl-7H-pyrrolo[2,3-d]pyrimidin-7-yl}-17-(2-amino-6-oxo-6,9-dihydro-1H-purin-9-yl)-3,9,12,18-tetrahydroxy-2,4,7,11,14,16-hexaoxa-3λ^5,12λ^5-diphosphatricyclo[13.2.1.0^6,10]octadecane-3,12-dione]	40	12.9	6.6
Nc1nc2c(ncn2[C@@H]2O[C@@H]3OCP(=O)(O)O[C@H]4[C@@H](F)[C@H](n5cnc6c(N)nc(F)nc65)O[C@@H]4COP(=O)(O)O[C@@H]2[C@@H]3O)c(=O)[nH]1 [Compound 54, (1R,6R,8R,9R,10R,15R,17R,18S)-8-(6-amino-2-fluoro-9H-purin-9-yl)-17-(2-amino-6-oxo-6,9-dihydro-1H-purin-9-yl)-9-fluoro-3,12,18-trihydroxy-2,4,7,11,14,16-hexaoxa-3λ^5,12λ^5-diphosphatricyclo[13.2.1.0^6,10]octadecane-3,12-dione]	12	19.9	13
Nc1nc2c(ncn2[C@@H]2O[C@@H]3OCP(=O)(O)O[C@H]4C[C@H](n5cnc6c(N)ncnc65)O[C@@H]4COP(=O)(O)O[C@@H]2[C@@H]3O)c(=O)[nH]1 [Compound 55, (1R,6R,8R,10S,15R,17R,18S)-17-(2-amino-6-oxo-6,9-dihydro-1H-purin-9-yl)-8-(6-amino-9H-purin-9-yl)-3,12,18-trihydroxy-2,4,7,11,14,16-hexaoxa-3λ^5,12λ^5-diphosphatricyclo[13.2.1.0^6,10]octadecane-3,12-dione]	10	22.9	15.2
Nc1nc2c(ncn2[C@@H]2O[C@@H]3OCP(=O)(O)OC4C[C@H](n5cnc6c(N)nc(Cl)nc65)O[C@@H]4COP(=O)(O)OC2C3O)c(=O)[nH]1 (stereo partly drawn) [Compound 56, (1R,6R,8R,105,15R,17R,185)-8-(6-amino-2-chloro-9H-purin-9-yl)-17-(2-amino-6-oxo-6,9-dihydro-1H-purin-9-yl)-3,12,18-trihydroxy-2,4,7,11,14,16-hexaoxa-3λ^5,12λ^5-diphosphatricyclo[13.2.1.0^6,10]octadecane-3,12-dione]	50	16.5	9.5
